Results taken from ChEMBL document CHEMBL1201862, “PubChem BioAssay data set” (2004).
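How tested: cells in 96-well plates exposed to compound for 48 hours at five concentrations. Here, GI50 denotes the concentration required for 50% inhibition of growth.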 Active and inactive are the calls of the source. Rule as the data show it: active = GI50 up to about 1.1 µM and inactive = higher.

What was measured:
Assay in all cases: growth of human tumour cells (NCI), 48 h
MDA-MB-231 = test system: MDA-MB-231
SK-MEL-28 = test system: SK-MEL-28
SF-539 = test system: SF-539
BT-549 = test system: BT-549
OVCAR-8 = test system: OVCAR-8
SNB-19 = test system: SNB-19
HOP-62 = test system: HOP-62
MCF7 = test system: MCF7
SK-MEL-5 = test system: SK-MEL-5
SF-268 = test system: SF-268
SNB-75 = test system: SNB-75
HCT-15 = test system: HCT-15
RXF 393 = test system: RXF 393
TK-10 = test system: TK-10
PC-3 = test system: PC-3
SF-295 = test system: SF-295
NCI-H460 = test system: NCI-H460
EKVX = test system: EKVX
MOLT-4 = test system: MOLT-4
HL-60 = test system: HL-60

SMILES | GI50 (MDA-MB-231) | GI50 (SK-MEL-28) | GI50 (SF-539) | GI50 (BT-549) | GI50 (OVCAR-8) | GI50 (SNB-19) | GI50 (HOP-62) | GI50 (MCF7) | GI50 (SK-MEL-5) | GI50 (SF-268) | GI50 (SNB-75) | GI50 (HCT-15) | GI50 (RXF 393) | GI50 (TK-10) | GI50 (PC-3) | GI50 (SF-295) | GI50 (NCI-H460) | GI50 (EKVX) | GI50 (MOLT-4) | GI50 (HL-60)
COc1cccc2[nH]c(-c3ccccn3)nc12 | > 100 µM (inactive) | > 100 µM (inactive) | > 100 µM (inactive) | > 100 µM (inactive) | > 100 µM (inactive) | > 100 µM (inactive) | 74 µM (inactive) | > 100 µM (inactive) | > 100 µM (inactive) | 72.4 µM (inactive) | > 100 µM (inactive) | 55.7 µM | > 100 µM (inactive) | > 100 µM (inactive) | > 100 µM (inactive) | 52.6 µM (inactive) | 86.7 µM (inactive) | > 100 µM (inactive) | – | –
CC(=O)n1c(COS(C)(=O)=O)nc2ccccc21 | > 100 µM (inactive) | > 100 µM (inactive) | > 100 µM (inactive) | > 100 µM (inactive) | > 100 µM (inactive) | > 100 µM (inactive) | 50.2 µM (inactive) | 79.3 µM (inactive) | > 100 µM (inactive) | > 100 µM (inactive) | > 100 µM (inactive) | > 100 µM | > 100 µM (inactive) | > 100 µM (inactive) | > 100 µM (inactive) | 54 µM (inactive) | > 100 µM (inactive) | > 100 µM (inactive) | – | –
N#Cc1c(-c2ccccc2)c(/N=N/c2ccc(Cl)cc2)c(=O)n2c1[nH]c1ccccc12 | > 100 µM (inactive) | > 100 µM (inactive) | > 100 µM (inactive) | > 100 µM (inactive) | 90.2 µM (inactive) | > 100 µM (inactive) | 27.2 µM (inactive) | > 100 µM (inactive) | 55.8 µM (inactive) | 79.1 µM (inactive) | 71 µM (inactive) | > 100 µM | 42.1 µM (inactive) | 23.3 µM (inactive) | > 100 µM (inactive) | 76.7 µM (inactive) | 35.5 µM (inactive) | 71.4 µM (inactive) | – | –
CC(C)OC(=O)C1=C2c3ncccc3C(=O)N2[C@@H](Cl)[C@@H](Cl)[C@@H]1Cl | > 100 µM (inactive) | > 100 µM (inactive) | > 100 µM (inactive) | > 100 µM (inactive) | 39.8 µM (inactive) | > 100 µM (inactive) | > 100 µM (inactive) | 84.3 µM (inactive) | > 100 µM (inactive) | 82.2 µM (inactive) | – | > 100 µM | > 100 µM (inactive) | > 100 µM (inactive) | > 100 µM (inactive) | > 100 µM (inactive) | > 100 µM (inactive) | > 100 µM (inactive) | 31.8 µM (inactive) | 25.8 µM (inactive)
O=[N+]([O-])c1cn[n+]([O-])c2ccccc12 | 13.2 µM (inactive) | 10.4 µM (inactive) | 10.4 µM (inactive) | 5.22 µM (inactive) | 2.18 µM (inactive) | 11.5 µM (inactive) | 12.9 µM (inactive) | 10.7 µM (inactive) | 13.2 µM (inactive) | 4.59 µM (inactive) | – | 2.06 µM | – | 12.9 µM (inactive) | 8.28 µM (inactive) | 4.75 µM (inactive) | 4.61 µM (inactive) | 12.9 µM (inactive) | 1.71 µM (inactive) | 1.17 µM (inactive)
O=C(O)c1ccc([N+](=O)[O-])c2cc3cnccc3nc12 | 19.4 µM (inactive) | 18.6 µM (inactive) | – | 19.1 µM (inactive) | 22.4 µM (inactive) | > 10 µM (inactive) | 31.6 µM (inactive) | 19.3 µM (inactive) | 19.1 µM (inactive) | – | 19.3 µM (inactive) | 20.1 µM | 27.1 µM (inactive) | – | 15.5 µM (inactive) | 43.5 µM (inactive) | 38.2 µM (inactive) | – | 3.91 µM (inactive) | > 100 µM (inactive)
COc1cc(O)c2c(=O)c3c(C)cccc3n(C)c2c1 | > 10 µM (inactive) | > 10 µM (inactive) | > 10 µM (inactive) | > 10 µM (inactive) | > 10 µM (inactive) | > 10 µM (inactive) | > 10 µM (inactive) | > 10 µM (inactive) | > 10 µM (inactive) | > 10 µM (inactive) | > 10 µM (inactive) | > 10 µM | > 10 µM (inactive) | > 10 µM (inactive) | > 10 µM (inactive) | > 10 µM (inactive) | > 10 µM (inactive) | 4.17 µM (inactive) | > 10 µM (inactive) | –
CN(C(=O)Cc1ccc(Cl)c(Cl)c1)[C@H]1CCCC[C@@H]1[N+]1(C)CCCC1 | > 100 µM (inactive) | > 100 µM (inactive) | > 100 µM (inactive) | > 100 µM (inactive) | > 100 µM (inactive) | > 100 µM (inactive) | > 100 µM (inactive) | > 100 µM (inactive) | 71.6 µM (inactive) | > 100 µM (inactive) | – | > 100 µM | – | > 100 µM (inactive) | > 100 µM (inactive) | > 100 µM (inactive) | – | > 100 µM (inactive) | > 100 µM (inactive) | –
NC1=NC(NCC2(CO)CCC2)=CC(OCC2(CO)CCC2)N1 (stereo not drawn) | > 100 µM (inactive) | > 100 µM (inactive) | – | > 100 µM (inactive) | > 100 µM (inactive) | > 100 µM (inactive) | > 100 µM (inactive) | > 100 µM (inactive) | 79.3 µM (inactive) | > 100 µM (inactive) | > 100 µM (inactive) | > 100 µM | > 100 µM (inactive) | – | > 100 µM (inactive) | > 100 µM (inactive) | > 100 µM (inactive) | > 100 µM (inactive) | 65.9 µM (inactive) | 78.2 µM (inactive)
COc1cc(C2SCC(=O)N2c2ccccc2Cl)cc(OC)c1OC (stereo not drawn) | > 100 µM (inactive) | > 100 µM (inactive) | > 100 µM (inactive) | 54 µM (inactive) | > 100 µM (inactive) | 79.3 µM (inactive) | – | 62.1 µM (inactive) | 92 µM (inactive) | > 100 µM (inactive) | – | > 100 µM | – | > 100 µM (inactive) | > 100 µM (inactive) | > 100 µM (inactive) | > 100 µM (inactive) | > 100 µM (inactive) | – | 37.8 µM (inactive)
COc1ccc(CN(Cc2ccc(OC)cc2)C(=O)CC2(O)CCc3ccccc3C2)cc1 (stereo not drawn) | > 100 µM (inactive) | > 100 µM (inactive) | > 100 µM (inactive) | > 100 µM (inactive) | 37 µM (inactive) | > 100 µM (inactive) | > 100 µM (inactive) | 41.2 µM (inactive) | 28.8 µM (inactive) | – | 30.1 µM (inactive) | 54.6 µM | – | > 100 µM (inactive) | 17.2 µM (inactive) | 27.1 µM (inactive) | 44 µM (inactive) | 37.5 µM (inactive) | 7.89 µM (inactive) | 17.8 µM (inactive)
COc1ccc2cc(NC(=O)Nn3cnnc3)ccc2c1 | > 100 µM (inactive) | > 100 µM (inactive) | > 100 µM (inactive) | > 100 µM (inactive) | > 100 µM (inactive) | > 100 µM (inactive) | > 100 µM (inactive) | > 100 µM (inactive) | > 100 µM (inactive) | > 100 µM (inactive) | 12.7 µM (inactive) | > 100 µM | – | > 100 µM (inactive) | > 100 µM (inactive) | > 100 µM (inactive) | > 100 µM (inactive) | 80.7 µM (inactive) | > 100 µM (inactive) | > 100 µM (inactive)
CC(=O)n1[nH]c(=O)n(-c2ccc(Cl)cc2)c1=O | > 100 µM (inactive) | > 100 µM (inactive) | – | > 100 µM (inactive) | > 100 µM (inactive) | > 100 µM (inactive) | > 100 µM (inactive) | > 100 µM (inactive) | > 100 µM (inactive) | > 100 µM (inactive) | – | > 100 µM | > 100 µM (inactive) | > 100 µM (inactive) | > 100 µM (inactive) | > 100 µM (inactive) | > 100 µM (inactive) | > 100 µM (inactive) | > 100 µM (inactive) | > 100 µM (inactive)
CCC1OC2C(CC=C(C)C)=C3OC(C)(O)C(C)(CC)C(OC(=O)c4ccccc4)C3=C3OC(=O)C=C1C32 (stereo not drawn) | 22.4 µM (inactive) | 83.9 µM (inactive) | 25.2 µM (inactive) | 19.1 µM (inactive) | 39.2 µM (inactive) | 23.8 µM (inactive) | 76.2 µM (inactive) | 47.6 µM (inactive) | 19.8 µM (inactive) | 36 µM (inactive) | 42.4 µM (inactive) | 38.4 µM | – | 52 µM (inactive) | 40.1 µM (inactive) | 34.3 µM (inactive) | 46.9 µM (inactive) | 31.6 µM (inactive) | 23.1 µM (inactive) | 3.44 µM (inactive)
CCC1(c2ccc(N3C(=O)c4cc(OC)c(OC)cc4C3=O)cc2)CCC(=O)NC1=O (stereo not drawn) | > 10 µM (inactive) | > 10 µM (inactive) | > 10 µM (inactive) | > 10 µM (inactive) | > 10 µM (inactive) | > 10 µM (inactive) | > 10 µM (inactive) | > 10 µM (inactive) | > 10 µM (inactive) | > 10 µM (inactive) | – | > 10 µM | > 10 µM (inactive) | > 10 µM (inactive) | > 10 µM (inactive) | > 10 µM (inactive) | > 10 µM (inactive) | > 10 µM (inactive) | > 10 µM (inactive) | > 10 µM (inactive)
CCOc1ccc(/N=N/C2C(=O)N(C(=O)CC(=O)Nc3ccc(C)cc3)N=C2C)cc1 (stereo not drawn) | 17 µM (inactive) | 30.8 µM (inactive) | 14.8 µM (inactive) | 23.6 µM (inactive) | 16.6 µM (inactive) | 14.3 µM (inactive) | 16 µM (inactive) | 40.6 µM (inactive) | 72.3 µM (inactive) | 22.3 µM (inactive) | 8.02 µM (inactive) | 38.1 µM | – | 24.8 µM (inactive) | > 100 µM (inactive) | 21.2 µM (inactive) | 14.8 µM (inactive) | 6.68 µM (inactive) | 14.7 µM (inactive) | 13.1 µM (inactive)
